Tested on: NMNAT2
Assay: NMNAT2-Hibit nano-luciferase activity in stably transfected U87MG cells, various concentrations, 24 hours
Assay type: cell-based
Conditions: U87MG cells stably transfected with NMNAT2-Hibit luc plasmid
Experimental: Selected compounds were tested in vitro. U87MG cells were stably transfected with NMNAT2-Hibit luc plasmid. Cells were treated with a test compound at various concentrations for 24 hours. Cells were then collected and assayed for nano-luciferase activity.

| SMILES | E: compound efficacy for NMNAT2 activation (concentration giving >25% increase in NMNAT2 luciferase activity) |
| --- | --- |
| Cc1cccc(CNC(=O)C2CCCc3c2c2ccccc2n3Cc2cccc(F)c2)c1 (stereo not shown) [BC20373] | + (“+” >25% increase in NMNAT2 luciferase activity at >25 μM.) |
| Cc1ccc(C)c(Cn2c(C(F)F)c(CCC(=O)NC(C)Cc3ccco3)c3ccccc32)c1 (stereo not shown) [BC20401] | ++ (“++” >25% increase in NMNAT2 luciferase activity at >1 μM ≤25 μM.) |
| O=C1CC(c2cn(Cc3cccc(F)c3)c3ccccc23)CCN1Cc1cccc(F)c1 (stereo not shown) [BC20319] | + (“+” >25% increase in NMNAT2 luciferase activity at >25 μM.) |
| Cc1ccc(Cn2cc([C@H]3C[C@@H]3C(=O)NCc3cccc(C)c3)c3ccccc32)cc1 (racemic) [BC20297] | + (“+” >25% increase in NMNAT2 luciferase activity at >25 μM.) |
| Cc1c(C)n(Cc2cccc(F)c2)c2ccc(C(=O)NCCc3ccccc3)cc12 [BC20248] | ++ (“++” >25% increase in NMNAT2 luciferase activity at >1 μM ≤25 μM.) |
| O=C(NCc1cccc(F)c1)C1CCCc2c1c1ccccc1n2Cc1cccc(F)c1 (stereo not shown) [BC20371] | ++ (“++” >25% increase in NMNAT2 luciferase activity at >1 μM ≤25 μM.) |
| COc1cccc(CNC(=O)CCCc2cn(Cc3cccc(F)c3)c3ccccc23)c1 [BC20143] | ++ (“++” >25% increase in NMNAT2 luciferase activity at >1 μM ≤25 μM.) |
| Cc1ccc(CNC(=O)c2ccc3c(c2)c(C)c(C)n3Cc2ccccc2C)o1 [BC20200] | ++ (“++” >25% increase in NMNAT2 luciferase activity at >1 μM ≤25 μM.) |
| COc1ccccc1CNC(=O)CCCc1cn(Cc2ccccc2C)c2ccccc12 [BC20155] | ++ (“++” >25% increase in NMNAT2 luciferase activity at >1 μM ≤25 μM.) |
| COc1cccc(CNC(=O)[C@H]2C[C@@H]2c2cn(Cc3cc(C)ccc3C)c3ccccc23)c1 (racemic) [BC20350] | + (“+” >25% increase in NMNAT2 luciferase activity at >25 μM.) |
| O=C(NCc1cccc(F)c1)N1CCc2c(c3ccccc3n2Cc2cccc(F)c2)C1 [BC20309] | + (“+” >25% increase in NMNAT2 luciferase activity at >25 μM.) |
| COc1cccc(CNC(=O)[C@H]2C[C@@H]2c2c(C)n(Cc3cc(C)ccc3C)c3ccccc23)c1 (racemic) [BC20325] | + (“+” >25% increase in NMNAT2 luciferase activity at >25 μM.) |
| O=C(CCCc1cn(Cc2ccccc2F)c2ccccc12)NCc1cccc(F)c1 [BC20124] | ++ (“++” >25% increase in NMNAT2 luciferase activity at >1 μM ≤25 μM.) |
| O=C(Nc1cccc(C(F)(F)F)c1)N1CCc2c(c3ccccc3n2Cc2cccc(F)c2)C1 [BC20362] | ++ (“++” >25% increase in NMNAT2 luciferase activity at >1 μM ≤25 μM.) |
| O=C(CCCc1cn(Cc2cccc(F)c2)c2ccccc12)NCc1cccc(F)c1 [BC20139] | ++ (“++” >25% increase in NMNAT2 luciferase activity at >1 μM ≤25 μM.) |
| O=C(NCCc1ccccc1)C1CCc2c(c3ccccc3n2Cc2cccc(F)c2)C1 (stereo not shown) [BC20227] | ++ (“++” >25% increase in NMNAT2 luciferase activity at >1 μM ≤25 μM.) |
| Cc1ccc(Cn2cc(C3CCN(Cc4ccccc4F)C(=O)C3)c3ccccc32)cc1 (stereo not shown) [BC20230] | ++ (“++” >25% increase in NMNAT2 luciferase activity at >1 μM ≤25 μM.) |
| O=C(NCc1cccc(F)c1)C1CCc2c(c3ccccc3n2Cc2ccncc2)C1 (stereo not shown) [BC20316] | + (“+” >25% increase in NMNAT2 luciferase activity at >25 μM.) |
| COc1ccc(CNC(=O)N2CCc3c(c4ccccc4n3Cc3cccc(F)c3)C2)cc1 [BC20332] | ++ (“++” >25% increase in NMNAT2 luciferase activity at >1 μM ≤25 μM.) |
| Cc1ccccc1Cn1cc(CCCC(=O)N(CCCN2CCOCC2)Cc2ccco2)c2ccccc21 [BC20157] | +++ (“+++” >25% increase in NMNAT2 luciferase activity at ≤1 μM.) |
| Cc1ccc(C)c(Cn2cc3c4c(cccc42)C(=O)N(CCOc2ccccc2)CC3)c1 [BC20343] | + (“+” >25% increase in NMNAT2 luciferase activity at >25 μM.) |
| Cc1ccc(CNC(=O)N2CCc3c(c4ccccc4n3Cc3cccc(F)c3)C2)cc1 [BC20331] | + (“+” >25% increase in NMNAT2 luciferase activity at >25 μM.) |
| Cc1c(C)n(Cc2ccccc2F)c2ccc(C(=O)N3CCN(C(=O)c4ccco4)CC3)cc12 [BC20107] | ++ (“++” >25% increase in NMNAT2 luciferase activity at >1 μM ≤25 μM.) |

| SMILES | E: compound efficacy for NMNAT2 activation (concentration giving >25% increase in NMNAT2 luciferase activity) |
| --- | --- |
| O=C(Cn1c2c(c3ccccc31)CC(C(=O)NCCc1ccccc1)CC2)NCc1ccco1 (stereo not shown) [BC20262] | ++ (“++” >25% increase in NMNAT2 luciferase activity at >1 μM ≤25 μM.) |
| O=C(Cn1cc(C(=O)c2ccc(Cl)cc2)c2ccccc21)NCc1ccncc1 [BC20216] | ++ (“++” >25% increase in NMNAT2 luciferase activity at >1 μM ≤25 μM.) |
| O=C(NCc1ccncc1)C1CCc2c(c3ccccc3n2Cc2cccc(F)c2)C1 (stereo not shown) [BC20228] | ++ (“++” >25% increase in NMNAT2 luciferase activity at >1 μM ≤25 μM.) |
| Cc1ccccc1Cn1c(C)c(C)c2cc(C(=O)N3CCN(C(=O)c4ccco4)CC3)ccc21 [BC20206] | + (“+” >25% increase in NMNAT2 luciferase activity at >25 μM.) |
| Cc1ccc(Cn2cc(C3CCN(Cc4cccc(C)c4)C(=O)C3)c3ccccc32)cc1 (stereo not shown) [BC20233] | ++ (“++” >25% increase in NMNAT2 luciferase activity at >1 μM ≤25 μM.) |
| Cc1cccc(Cn2cc(CCCC(=O)N3CCN(C(=O)c4ccco4)CC3)c3ccccc32)c1 [BC20170] | ++ (“++” >25% increase in NMNAT2 luciferase activity at >1 μM ≤25 μM.) |
| Cc1ccc(C)c(Cn2cc([C@H]3C[C@@H]3C(=O)N3CCc4occc4C3)c3ccccc32)c1 (racemic) [BC20359] | + (“+” >25% increase in NMNAT2 luciferase activity at >25 μM.) |
| Cc1ccc(CNC(=O)CCCc2cn(Cc3ccccc3F)c3ccccc23)o1 [BC20122] | ++ (“++” >25% increase in NMNAT2 luciferase activity at >1 μM ≤25 μM.) |
| O=C(c1ccc(Cl)cc1)c1cn(CC(=O)N2CCN(C(=O)c3ccco3)CC2)c2ccccc12 [BC20182] | + (“+” >25% increase in NMNAT2 luciferase activity at >25 μM.) |
| Cc1ccc(C)c(Cn2c3c(c4ccccc42)CC(C(=O)NCc2ccccc2F)CC3)c1 (stereo not shown) [BC20217] | + (“+” >25% increase in NMNAT2 luciferase activity at >25 μM.) |
| O=C1c2cccc3c2c(cn3Cc2cccc(F)c2)CCN1Cc1cccc(F)c1 [BC20275] | + (“+” >25% increase in NMNAT2 luciferase activity at >25 μM.) |
| Cc1ccc(CNC(=O)C2CCc3c(c4ccccc4n3Cc3ccncc3)C2)o1 (stereo not shown) [BC20279] | + (“+” >25% increase in NMNAT2 luciferase activity at >25 μM.) |
| COc1ccccc1CNC(=O)Cn1cc(C(=O)c2ccc(Cl)cc2)c2ccccc21 [BC20180] | ++ (“++” >25% increase in NMNAT2 luciferase activity at >1 μM ≤25 μM.) |
| Cc1cccc(NC(=O)c2ccc3c(c2)c(C)c(C)n3Cc2cccc(F)c2)c1C [BC20249] | +++ (“+++” >25% increase in NMNAT2 luciferase activity at ≤1 μM.) |
| Cc1ccc(CNC(=O)C2CCCc3c2c2ccccc2n3Cc2cccc(F)c2)o1 (stereo not shown) [BC20369] | ++ (“++” >25% increase in NMNAT2 luciferase activity at >1 μM ≤25 μM.) |
| Cc1ccc(Cn2c3c(c4ccccc42)C(C(=O)NCCc2ccccc2)CCC3)cc1 (stereo not shown) [BC20388] | + (“+” >25% increase in NMNAT2 luciferase activity at >25 μM.) |
| Cc1ccc(C)c(Cn2c3c(c4ccccc42)CC(C(=O)NCc2ccncc2)CC3)c1 (stereo not shown) [BC20190] | + (“+” >25% increase in NMNAT2 luciferase activity at >25 μM.) |
| Cc1ccccc1Cn1c(C)c(C)c2cc(C(=O)NCc3ccco3)ccc21 [BC20199] | ++ (“++” >25% increase in NMNAT2 luciferase activity at >1 μM ≤25 μM.) |
| Cc1ccc(Cn2c3c(c4ccccc42)C(C(=O)NCc2cccnc2)CCC3)cc1 (stereo not shown) [BC20389] | ++ (“++” >25% increase in NMNAT2 luciferase activity at >1 μM ≤25 μM.) |
| Cc1ccccc1Cn1cc(CCCC(=O)Nc2cccc(C)c2C)c2ccccc21 [BC20161] | ++ (“++” >25% increase in NMNAT2 luciferase activity at >1 μM ≤25 μM.) |
| Cc1ccc(C)c(Cn2c3c(c4ccccc42)CC(C(=O)NCc2ccc(C)o2)CC3)c1 (stereo not shown) [BC20183] | + (“+” >25% increase in NMNAT2 luciferase activity at >25 μM.) |
| COc1ccccc1CNC(=O)C1CCc2c(c3ccccc3n2Cc2cc(C)ccc2C)C1 (stereo not shown) [BC20187] | + (“+” >25% increase in NMNAT2 luciferase activity at >25 μM.) |
| Cc1c(C)n(Cc2ccccc2)c2ccc(C(=O)N3CCc4occc4C3)cc12 [BC20307] | + (“+” >25% increase in NMNAT2 luciferase activity at >25 μM.) |
